# Assay results from US8252822B2, “Heterocyclic compounds and uses as anticancer agents” (Acea Biosciences, Inc., priority 2007, dated 2012).
# Read-outs that look alike come from different tables or passages of the source.
# Legend:
# [1] = system: HT29; test: RT-CES cell proliferation inhibition, HT29; format: cell-based; conditions: Homo sapiens, HT-29
# Description: (§1) The biological activity of compounds disclosed herein was monitored and profiled using the Real-Time Cell Electronic Sensing (RT-CES®) system from ACEA Biosciences, Inc. The RT-CES system utilizes cell-substrate impedance technology to monitor cellular behavior inside tissue culture wells in a microtiter plate format. The technology features in the integration of molecular and cell biology with microelectronics and is based on the electronic detection of biological assay process. The details of this cell electronic sensing technology and associated devices, systems and methods of use as described in U.S. provisional application No. 60/379,749, filed on Jul. […]
# (§2) For measurement of cell-substrate or cell-electrode impedance using RT-CES technology, microelectrodes having appropriate geometries are fabricated onto the bottom surfaces of microtiter plate or similar device, facing into the wells. […] When there are changes to the biological status of the cells analogue electronic readout signals are measured automatically and in real time, and are converted to digital signals for processing and for analysis. In a RT-CES system, a cell index (arbitrary representation of change in impedance) is automatically derived and provided based on measured electrode impedance values. […]
# (§3) To quantify cell status based on the measured cell-electrode impedance, a parameter termed Cell Index is derived. […]
# [2] = system: MKN45; test: RT-CES cell proliferation inhibition, MKN45; format: cell-based; conditions: Homo sapiens, MKN-45
# Description: as §1, §2, §3
# [3] = system: GTL16; test: RT-CES cell proliferation inhibition, GTL16; format: cell-based; conditions: Homo sapiens, GTL 16
# Description: as §1, §2, §3
# [4] = system: A549 cells; test: RT-CES cell proliferation inhibition, A549; format: cell-based, Human; conditions: for IC50: Homo sapiens
# Description: The biological activity of compounds disclosed herein was monitored and profiled using the Real-Time Cell Electronic Sensing (RT-CES®) system from ACEA Biosciences, Inc. The RT-CES system utilizes cell-substrate impedance technology to monitor cellular behavior inside tissue culture wells in a microtiter plate format. The technology features in the integration of molecular and cell biology with microelectronics and is based on the electronic detection of biological assay process. The details of this cell electronic sensing technology and associated devices, systems and methods of use as described in U.S. provisional application No. 60/379,749, filed on Jul. 20, 2002; U.S. provisional application No. 60/435,400, filed on Dec. 20, 2002; U.S. Provisional application 60/469,572, filed on May 9, 2003, PCT application number PCT/US03/22557, filed on Jul. 18, 2003; PCT application number PCT/US03/22537, filed on Jul. 18, 2003; U.S. patent application Ser. No. 10/705,447, filed on Nov. 10, 2003; U.S. patent application Ser. No. 10/705,615, filed on Nov. 10, 2003, each of which is incorporated by reference. Additional details of RT-CES technology is further disclosed in U.S. provisional application No. 60/519,567, filed on Nov. 12, 2003, and U.S. provisional application No. 60/542,927, filed on Feb. 9, 2004.
# For measurement of cell-substrate or cell-electrode impedance using RT-CES technology, microelectrodes having appropriate geometries are fabricated onto the bottom surfaces of microtiter plate or similar device, facing into the wells. Cells are introduced into the wells of the devices, and make contact to and attach to the electrode surfaces. The presence, absence or change of properties of cells affects the electronic and ionic passage on the electrode sensor surfaces. Measuring the impedance between or among electrodes provides important information about biological status of cells present on the sensors. When there are changes to the biological status of the cells analogue electronic readout signals are measured automatically and in real time, and are converted to digital signals for processing and for analysis. In a RT-CES system, a cell index (arbitrary representation of change in impedance) is automatically derived and provided based on measured electrode impedance values. The cell index obtained for a given well reflects: 1) how many cells are attached to the electrode surfaces in this well; 2) how well cells are attached to the electrode surfaces in this well. Thus, the more the cells of same type in similar physiological conditions attach the electrode surfaces, the larger the cell index. And, the better the cells attach to the electrode surfaces (e.g., the cells spread-out more to have larger contact areas, or the cells attach tighter to electrode surfaces), the larger the cell index.
# The RT-CES system comprises three components, an electronic sensor analyzer, a device station and 16× or 96× microtiter devices. Microelectrode sensor array was fabricated on glass slides with lithographical microfabrication methods and the electrode-containing slides are assembled to plastic trays to form electrode-containing wells. The device station receives the 16× or 96× microtiter plate devices and is capable of electronically switching any one of the wells to the sensor analyzer for impedance measurement. In operation, the devices with cells cultured in the wells are placed into a device station that is located inside an incubator. Electrical cables connect the device station to the sensor analyzer. Under the RT-CES software control, the sensor analyzer can automatically select wells to be measured and continuously conduct impedance measurements. The impedance data from the analyzer is transferred to a computer, analyzed and processed by the integrated software.
# as §3
# [5] = system: murine Lewis lung cancer (LLC); test: Anti-tumor activity against LLC mice model; format: in vivo, C57 BL/6 mice; conditions: 40 mg/kg; for Tumor Weight / Inhibition Rate (%): LLC, 12 days; for Tumor Weight: qod (Table 14); for Inhibition Rate (%): qod (Table 14; text qd); for Body Weight (g) Start: mouse, in vivo
# Method: ACEA100160 (2-(4-ethoxyphenyl)amino-4-(6-methylimidazo[1,2-a]pyrimidin-3-yl)thiazole) and ACEA 100162 (2-(4-ethoxyphenyl)amino-4-(6-methylimidazo[2,1-b]thiazol-5-yl)thiazole) are prepared at concentration of 8 mg/ml in solution containing 20% HP-beta-CD dextrose (D5W). The solvent HP-beta-CD solution is used as a vehicle negative control.
# LLC: murine Lewis lung cancer cell line.
# LLC cells were cultured in DMEM medium with 10% FBS to obtain the necessary cell number for injection subcutaneously (10^7 cells).
# Under a sterilized condition, sacrifice the C57 BL/6 murine LLC bearing mice, separate tumor and put it into NS. Chop the tumor into fine pieces with sterilized scissors and then homogenate into cell suspension. Inject 0.2 ml cell suspension (10^6 cells) subcutaneously into the left flank on C57 BL/6 mice. On the first treatment day before iv or ip, implanted animals are randomly divided into seven groups as following. The drugs were administrated in the schedule of Table 13 respectively. The solvent HP-beta-CD solution is used as a vehicle negative control. Observe clinical signs at least daily.
# Tumor weight was recorded. The tumor inhibitory rate was calculated as follows: inhibitory rate=1-Wt/W0, where Wt is the average weight of each drug treatment group and W0 is the average weight of negative control group. Results are given as mean±SD values from n animals. Comparisons between groups were made with Student's two-tailed t test and a P<0.05 was considered significant.
# [6] = system: 3T3; test: RT-CES cell proliferation inhibition, 3T3; format: cell-based; conditions: Mus musculus, NIH3T3
# Description: as §1, §2, §3
# [7] = system: KB; test: RT-CES cell proliferation inhibition, KB; format: cell-based; conditions: Homo sapiens
# Description: as §1, §2, §3
# [8] = system: MCF7; test: RT-CES cell proliferation inhibition, MCF7; format: cell-based; conditions: Homo sapiens
# Description: as §1, §2, §3
# [9] = system: Bcap37; test: RT-CES cell proliferation inhibition, Bcap37; format: cell-based; conditions: Homo sapiens
# Description: as §1, §2, §3
smiles,measurement,setting,value
"Br.CCOc1ccc(Nc2nc(-c3c(C)nc4sccn34)cs2)cc1 [Compound 27, 2-(4-ethoxyphenyl)amino-4-(6-methylimidazo[2,1-b]thiazol-5-yl)thiazole]",IC50,"[1]; HT29, 24 hrs, read-out: IC50 (24 hr)",53.6 nM
same,IC50,"[1]; HT29, 48 hrs, read-out: IC50 (48 hr)",58.8 nM
same,IC50,"[2]; MKN45, 24 hrs, read-out: IC50 (24 hr)",> 200 nM
same,IC50,"[2]; MKN45, 48 hrs, read-out: IC50 (48 hr)",> 200 nM
same,IC50,"[3]; GTL16, 24 hrs, read-out: IC50 (24 hr)",138 nM
same,IC50,"[3]; GTL16, 48 hrs, read-out: IC50 (48 hr)",2.1 nM
same,concentration at or above which cell indices first decreased with time and then increased,"[4]; A549, complex kinetic responses",≥ 62.5 nM
same,IC50,"[4]; A549, 24 hours after compound treatment, normalized Cell Index, read-out: IC50 (24 hr)",57.4 nM
same,IC50,"[4]; A549, 48 hrs, read-out: IC50 (48 hr)",29.1 nM
same,inhibitory ability against the proliferation of A549 cells,"[4]; various concentrations studied, time-dependent cell index",exhibited inhibitory ability against the proliferation of A549 cells
same,Tumor Weight,[5]; IP,0.70 ± 0.46 g
same,Inhibition Rate (%),"[5]; IP, listed as 162, 40 mg/kg",39.2%
same,Inhibition Rate (%),"[5]; IP, listed as ACEA100162, 40 mg/kg",39.15%
same,Tumor Weight,[5]; IV,0.91 ± 0.18 g
same,Inhibition Rate (%),[5]; IV,25.5%
same,Body Weight (g) Start,[5]; ip,19.0 ± 0.8 g
same,Body Weight (g) Start,[5]; iv,18.5 ± 1.3 g
same,IC50,"[6]; 3T3, 24 hrs, read-out: IC50 (24 hr)",20.6 nM
same,IC50,"[6]; 3T3, 48 hrs, read-out: IC50 (48 hr)",51.5 nM
same,IC50,"[7]; 24 hrs, read-out: IC50 (24 hr)",22.2 nM
same,IC50,"[7]; 48 hrs, read-out: IC50 (48 hr)",18.1 nM
same,IC50,"[8]; MCF7, 24 hrs, read-out: IC50 (24 hr)",> 200 nM
same,IC50,"[8]; MCF7, 48 hrs, read-out: IC50 (48 hr)",> 200 nM
same,IC50,"[9]; Bcap37, 24 hrs, read-out: IC50 (24 hr)",27.3 nM
same,IC50,"[9]; Bcap37, 48 hrs, read-out: IC50 (48 hr)",26 nM
